Measured values: paper PMC10940318, “Targeted intracellular delivery of dimeric STINGa by two pHLIP peptides for treatment of solid tumors” (Frontiers in Pharmacology, 2024)

Tests used:
[1] = Stability in mouse plasma; conditions: BALB/c mouse plasma, 200 µM
Method: Plasma proteins were precipitated by methanol (1:5 volume ratio of plasma to methanol) and centrifuged for 10 min at […]. The supernatant was collected and analyzed by HPLC using a Zorbax SB-C18 4.6 × 250 mm, 5 μm column with a gradient from 20% to 80% acetonitrile in water containing 0.05% TFA. Chromatograms were recorded at 220 nm, 280 nm and 325 nm.

[2] = system: CT26 murine colorectal cancer tumors; experiment: Treatment of CT26 tumors in mice; assay type: in vivo, Balb/c mice; conditions: two IP injections of 300 µM 500 µL on days 1 and 3; CT26 tumors
Method: For the treatment of CT26 tumors, 5 × 10^4 CT26 murine colorectal cancer cells (ATCC, CRL-2638) were injected subcutaneously (SQ) in 100 μL of growth medium into the right flank of female Balb/c mice ranging in age from 7 to 9 weeks (Envigo RMS, Inc.). […] The compounds were dissolved in DMSO as a stock solution and transferred to PBS (vehicle). The residual DMSO in the final solution injected into animals was less than 2%. Tumor volume and body weight were measured 3 times per week throughout the study. Measurements of tumors were performed using calipers, and the tumor volume (V) was calculated with the formula: V=0.52∙L∙W^2 where L is the length and W is the width of the measured tumor. Mice were removed from the study and euthanized when the tumor volume was greater than 2,000 mm^3.

human STING WT protein = molecular target: T1, human STING WT protein (Homo sapiens, UniProt Q86WV6); experiment: HTRF competitive binding to STING protein (human STING WT binding kit); conditions: HTRF competitive assay, 6His-tagged human STING WT, d2-labelled ligand, 3 h RT; EC50 in method, IC50 in Fig. S1; read-out: binding affinity to STING protein
T1 construct: purchased Cisbio
Method: STING WT ligand d2 reagent was premixed with 6His Tb antibodies, and it was added to each well and the plate was incubated for 3 h at RT. Fluorescence intensities at 616 nm and 665 nm excited at […] were recorded on the SpectraMax ID5 plate reader (Molecular Devices). The homogeneous time resolved fluorescence (HTRF) ratio was calculated to establish the binding of each agent to the STING protein and to calculate EC50.

[3] = system: THP-1-Blue-ISG cells polarized into M2-type macrophages; experiment: Activation of IFN (IRF-SEAP reporter) in M2-polarized macrophages; assay type: cell-based, human; conditions: THP1-Blue-ISG cells polarized by PMA, IL-4/IL-13, 2 h in DMEM without FBS pH 6.9, then 48 h, QUANTI-Blue, absorbance 655 nm, read-out: EC50 of activation of IRF signaling
Method: THP-1-Blue™-ISG cells (Invivogen) expressing an interferon (IFN) regulatory factor (IRF)-inducible secreted embryonic alkaline phosphatase (SEAP) reporter construct were used. Cells were maintained in RPMI growth medium supplemented with L-glutamine, sodium pyruvate, 10% fetal bovine serum (FBS), normocin and ciprofloxacin hydrochloride in a humidified atmosphere of 5% CO2 and 95% air at 37°C. Cells were seeded in 96-well plates at a density of 75,000 cells/well. To generate M2 polarized macrophages, cells were treated first with 185 ng/mL phorbol 12-myristate 13-acetate (PMA) for 6 h and then 20 ng/mL of interleukin 4 (IL-4) and 20 ng/mL of interleukin 13 (IL-13) (both from PeproTech) were added for another 16 h of treatment. […] After a 2-h incubation, an equal volume of RPMI supplemented with 20% heat-inactivated FBS was added, and cells were incubated for another 48 h. SEAP activity was accessed using the QUANTI-Blue™ Solution (Invivogen) to evaluate type I interferon protein levels: 150 μL of the colorimetric reagent was added to 50 μL of cell supernatant for 30 min, 37°C, followed by absorption measurement at 655 nm.

[4] = Self-immolation kinetics of the S-S linker and payload release after DTT, by HPLC; assay type: physicochemical; conditions: DTT in 50 mM phosphate buffer, 150 mM NaCl, pH 7.4; HPLC at 0.5-48 h, UV 220/280/325 nm
Method: Figure S3. Kinetics of self-immolation of 2pHLIP-dMSA. […] Starting 2pHLIP-dMSA is shown on A.
Figure S4. Self-immolation kinetics of pHLIP-mMSA. HPLC chromatograms recorded at 280 nm and 325 nm for pHLIP-mMSA treated with DTT dissolved in 50 mM phosphate buffer containing 150 mM NaCl pH 7.4 at different time points ([…]) after addition of DTT (A-G) and the retention time for mMSA (H) and pHLIP (I) are shown. Starting pHLIP-mMSA is shown on A.

[5] = Stability in human plasma; assay type: in vitro ADME; conditions: single donor human plasma, 200 µM, 0-24 h at 37°C, methanol precipitation, HPLC C18, UV 220/280/325 nm
Method: Plasma proteins were precipitated by methanol (1:5 volume ratio of plasma to methanol) and centrifuged for 10 min at 13.4 rpm. The supernatant was collected and analyzed by HPLC using a Zorbax SB-C18 4.6 × 250 mm, 5 μm column with a gradient from 20% to 80% acetonitrile in water containing 0.05% TFA. Chromatograms were recorded at 220 nm, 280 nm and 325 nm.

CT26 tumor = experiment: Biodistribution and tumor targeting by ex vivo NIR fluorescence imaging; assay type: in vivo, Balb/c mice; conditions: single RO injection 50 µM 100 µL; ex vivo fluorescence at 1-120 h
Method: For biodistribution studies 5 × 10^4 of CT26 cancer cells were injected SQ in 100 µL of growth medium into the right flank of female Balb/c mice and tumors were grown until they reached 150–250 mm^3 in volume. Then a single retro-orbital (RO) injection of 50 μM 100 μL of 2(ICG-pHLIP)-dMSA was performed. Animals were euthanized at 5 min, 1, 4, 24, 48, 72, and 120 h post-injection, blood was collected in K2 EDTA vacutainer blood collection tubes (BD), and necropsy was performed immediately after animals were euthanized. […]
The in vivo and ex vivo bright field and near-infrared fluorescent imaging employed a Stryker 1588 AIM endoscopic system with L10 AIM Light Source (808 nm excitation and collection of light in the range of approximately of 815–850 nm), and a 1588 AIM Camera using a 10 mm scope. […] The ex vivo fluorescence imaging of tissue specimens was performed using three different laser settings and six different gain settings. The digital fluorescence images were split into RGB channels, with the green channel being analyzed using ImageJ program to calculate the average fluorescence intensity. All average intensities were adjusted based on their capture settings and using calibration curves to present fluorescence intensities corresponding to the unified (the same) settings.

[6] = Blood clearance (PK) by whole blood fluorescence imaging; assay type: in vivo, Balb/c mice; conditions: single RO injection of 2(ICG-pHLIP)-dMSA 50 µM 100 µL, CT26 tumor-bearing female Balb/c mice; whole blood fluorescence, exponential fit
Method: For biodistribution studies 5 × 10^4 of CT26 cancer cells were injected SQ in 100 µL of growth medium into the right flank of female Balb/c mice and tumors were grown until they reached 150–250 mm^3 in volume. Then a single retro-orbital (RO) injection of 50 μM 100 μL of 2(ICG-pHLIP)-dMSA was performed. Animals were euthanized at 5 min, 1, 4, 24, 48, 72, and 120 h post-injection, blood was collected in K2 EDTA vacutainer blood collection tubes (BD), and necropsy was performed immediately after animals were euthanized. Blood, tumors and major organs (kidney, liver, spleen, pancreas, lung, heart, large and small intestines, bone, muscle, brain) were collected, and imaged ex vivo immediately after necropsy. Blood (200 µL) was imaged in 96-well plates with black bottom and walls.
The in vivo and ex vivo bright field and near-infrared fluorescent imaging employed a Stryker 1588 AIM endoscopic system with L10 AIM Light Source (808 nm excitation and collection of light in the range of approximately of 815–850 nm), and a 1588 AIM Camera using a 10 mm scope. The lens was kept at a fixed distance from the surface of the organs, within an enclosed (light-protected) area. Calibration curves converting laser and gain settings were established by imaging of pHLIP-ICG solution at different concentrations. The ex vivo fluorescence imaging of tissue specimens was performed using three different laser settings and six different gain settings. The digital fluorescence images were split into RGB channels, with the green channel being analyzed using ImageJ program to calculate the average fluorescence intensity. All average intensities were adjusted based on their capture settings and using calibration curves to present fluorescence intensities corresponding to the unified (the same) settings.

T1 sequence (Q86WV6 whole entry): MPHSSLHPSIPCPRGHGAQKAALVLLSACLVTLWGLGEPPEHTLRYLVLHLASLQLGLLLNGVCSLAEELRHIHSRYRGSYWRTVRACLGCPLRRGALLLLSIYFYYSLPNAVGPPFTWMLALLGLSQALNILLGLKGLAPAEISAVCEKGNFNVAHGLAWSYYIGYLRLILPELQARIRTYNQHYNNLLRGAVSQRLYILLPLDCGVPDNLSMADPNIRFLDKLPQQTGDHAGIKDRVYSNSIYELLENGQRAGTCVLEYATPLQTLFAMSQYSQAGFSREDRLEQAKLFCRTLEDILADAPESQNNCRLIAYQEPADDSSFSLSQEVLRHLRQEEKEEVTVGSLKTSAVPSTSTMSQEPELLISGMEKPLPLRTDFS

Compound: COc1cc2cc(C(=O)CCC(=O)O)sc2cc1OC [mMSA, reference compound]
- time within which the cargo released from pHLIP underwent degradation in mouse plasma ([1]; 37°C, HPLC C18, UV): ≤ 24 h
- therapeutic activity on animals (in words) [2]: did not demonstrate any activity
- IC50 (human STING WT protein): 7.5 µM
- EC50 [3]: 2200 nM

Compound: ADQDNPWRAYLDLLFPTDTLLLDLLWCG [pHLIP-mMSA, single Var3 pHLIP peptide linked with a single monomeric STINGa mMSA via S-S cleavable self-immolating linker]
- stability in mouse plasma (in words) ([1]; 0-24 h at 37°C, methanol precipitation, HPLC C18, UV 220/280/325 nm): low
- time to completion of linker self-immolation and release of payload in its original form [4]: ≤ 24 h
- stability in human plasma (in words) [5]: very high

Compound: AKDQDNPWRAYLDLLFPTDTLLLDLLWCG [2(ICG-pHLIP)-dMSA, fluorescent version of 2pHLIP-dMSA with ICG dye on a lysine near the N-terminus of each pHLIP]
- accumulation in the tumor (in words) (CT26 tumor): significant accumulation of the agent in the tumor from 1 h and up to 48 h
- organ and tissue clearances (in words) (CT26 tumor): slow
- blood clearance half-life [6]: 32.2 h
